Results on 27 molecules are retold here after ChEMBL document CHEMBL1158604, “New pyrazolo[1,5a]pyrimidines as orally active inhibitors of Lck” (Bioorg Med Chem Lett, 2010).

pIC50: −log10 of the molar value. Activity calls are given as the source filed them. No cut-off for these calls is given here.

Data set [1] addresses T1, Tyrosine-protein kinase Lck (Homo sapiens, UniProt P06239).
Data set [2] deals with Tyrosine-protein kinase HCK (Homo sapiens, UniProt P08631).
Data set [3] deals with Proto-oncogene tyrosine-protein kinase Src (Homo sapiens, UniProt P12931).
Data set [4] addresses Vascular endothelial growth factor receptor 2 (Homo sapiens, UniProt P35968).
Data set [5] concerns the target Insulin-like growth factor 1 receptor (Homo sapiens, UniProt P08069). The data set can be described thus: Inhibition of IGF1R.
In data set [6] the target is T1, Tyrosine-protein kinase Lck. Description: Inhibition of LCK in human Jurkat cells assessed as ZAP70 phosphorylation by FACS assay. It counts as cell-based.
The target of data set [7] is Tyrosine-protein kinase JAK2 (Homo sapiens, UniProt O60674). Description: Inhibition of JAK2.
Data set [8] can be described thus: Volume of distribution in rat. Type of data set: ADME, organism-based. The settings on record: in vivo.
The target in data set [9] is Platelet-derived growth factor receptor alpha (Homo sapiens, UniProt P16234). The data set can be described thus: Inhibition of PDGFRalpha.
Data set [10] concerns the target Tyrosine-protein kinase JAK3 (Homo sapiens, UniProt P52333). Description: Inhibition of JAK3.
Data set [11] in a line: Clearance in rat. Type of data set: ADME, organism-based. Conditions: in vivo.
Data set [12] has as its target Mast/stem cell growth factor receptor Kit (Homo sapiens, UniProt P10721). The data set can be described thus: Inhibition of cKIt.
Data set [13] concerns Mus musculus. The data set can be described thus: Immunosuppressive activity in BALB/c mouse assessed as CD3 antibody-induced IL2 production at 10 mg/kg, po relative to control. Type of data set: functional.
For data set [14], the target named is Tyrosine-protein kinase JAK1 (Homo sapiens, UniProt P23458). Description: Inhibition of JAK1.
Data set [15] concerns the target Cyclin-dependent kinase 2/cyclin A (Homo sapiens, UniProt P24941). The data set can be described thus: Inhibition of CDK2/cyclinA. It counts as protein-complex assay.
The target of the next data set is Angiopoietin-1 receptor (Homo sapiens, UniProt Q02763). The data set can be described thus: Inhibition of tie2.
The nature of data set [16]: Inhibition of cABL T315 mutant.
Data set [17] deals with Mus musculus. The data set can be described thus: Immunosuppressive activity in BALB/c mouse assessed as CD3 antibody-induced IL2 production at 30 mg/kg, po relative to control. It counts as functional.
Data set [18] addresses Receptor tyrosine-protein kinase erbB-2 (Homo sapiens, UniProt P04626). The data set can be described thus: Inhibition of Her2.
The test system of a further data set is Liver microsomes. The settings on record: rat.
In the next data set the target is Insulin receptor (Homo sapiens, UniProt P06213). Description: Inhibition of INSR.
In data set [19] the target is Tyrosine-protein kinase ZAP-70 (Homo sapiens, UniProt P43403). Description: Inhibition of ZAP70.
The test system of data set [20] is Mus musculus. Description: Immunosuppressive activity in BALB/c mouse assessed as concanavalin A-induced T cell activation at 100 mg/kg, po relative to control. Type of data set: functional, organism-based. On the set-up: dose 100 mg/kg.
In data set [21] the target is Proto-oncogene tyrosine-protein kinase receptor Ret (Homo sapiens, UniProt P07949). Description: Inhibition of Ret.
Data set [22] in a line: Half life in rat. Type of data set: ADME, organism-based. Conditions: in vivo.
The target of data set [23] is Tyrosine-protein kinase ABL1 (Homo sapiens, UniProt P00519). Description: Inhibition of ABL.
Data set [24] in a line: Oral bioavailability in rat. It counts as ADME, organism-based. The settings on record: in vivo.
The target of data set [25] is ALK tyrosine kinase receptor (Homo sapiens, UniProt Q9UM73). The data set can be described thus: Inhibition of Alk.
A short description of a further data set: in vitro. Conditions: rat, liver microsomes. In general terms: Liver microsomes are vesicles of endoplasmic reticulum, rich in cytochrome P450 enzymes.
Data set [26] has as its target Fibroblast growth factor receptor 3 (Homo sapiens, UniProt P22607). Description: Inhibition of FGFR3K.
Data set [27] deals with RAC-alpha serine/threonine-protein kinase (Homo sapiens, UniProt P31749). The data set can be described thus: Inhibition of PKBalpha.
The subject of data set [28] is Mus musculus. Description: Immunosuppressive activity in BALB/c mouse assessed as CD3 antibody-induced IL2 production at 100 mg/kg, po relative to control. Type of data set: functional.
For data set [29], the target named is Hepatocyte growth factor receptor (Homo sapiens, UniProt P08581). The data set can be described thus: Inhibition of cMet.

Description for Liver microsomes: Clearance in rat liver microsomes
Description for in vitro: Half life in rat liver microsomes

Consider `COCCN1CCN(c2ccc(-c3cnn4c(N)c(-c5ccc(NC(=O)OCC(C)C)cc5)cnc34)cc2)CC1`, for which the pIC50 (commonly −log10 of the IC50, conventionally taken in molar units) in data set [1] was 7.43; in [2] it was 6.46; in [3], 6.00; in [4] it was 5.66.
As to `CN1CCN(c2cccc(-c3cnn4c(N)c(-c5ccc(NC(=O)CCC6CCCC6)cc5)cnc34)c2)CC1`, the pIC50 in [2] is 7.43; in data set [3], 6.87; in data set [4] it was 6.16.
For the molecule `CC(C)COC(=O)Nc1ccc(-c2cnc3c(-c4cccc(N5CCOCC5)c4)cnn3c2N)cc1`, the pIC50 in data set [1] was 6.16; in data set [2], less than 6.00; in data set [3] it was less than 6.00; in data set [4] it was 5.13.
On to `Cc1cc(NC(=O)OCC(C)C)ccc1-c1cnc2c(-c3cccc(N4CCN(C)CC4)c3)cnn2c1N`, for which the pIC50 in [1] was 7.64; in data set [2], 6.34; in data set [3] it was 6.34; in data set [4], 5.47.
On to `COc1cc(-c2cnc3c(-c4cccc(N5CCN(C)CC5)c4)cnn3c2N)ccc1NC(=O)OCC(C)C`, for which the pIC50 is 6.26 in data set [1], less than 6.00 in data set [2], less than 6.00 in data set [3] and 5.04 in [4].
With `CN1CCN(c2cccc(-c3cnn4c(N)c(-c5ccc(NS(=O)(=O)c6cccc(Cl)c6Cl)cc5)cnc34)c2)CC1`, the pIC50 was 7.55 in [1], less than 6.00 in [2], less than 6.00 in data set [3] and 5.27 in data set [4].
Take `CN1CCN(c2ccc(-c3cnn4c(N)c(-c5ccc(NC(=O)N(C)C6CCCCC6)cc5)cnc34)cc2)CC1`: the pIC50 in [2] was 6.75; in [3] it was 6.30; in data set [4], 6.36.
As to `CC(C)COC(=O)Nc1ccc(-c2cnc3c(-c4ccc(N5CCN(C)CC5)cc4)cnn3c2N)cc1`, the pIC50 is less than 5.00 in data set [5]; 6.97 in data set [6]; less than 5.00 in data set [7]; 7.66 in data set [1]; 7.13 in data set [9]; less than 5.00 in data set [10]. The pIC50 in data set [12] is 7.05; in data set [14] it was less than 5.00; in [15] it was less than 5.00; against Angiopoietin-1 receptor it was 6.00; in data set [16] it was 5.49; in data set [2], 6.74. In addition, the pIC50 was 6.18 in data set [3]; less than 5.00 in data set [18]; less than 5.00 on Insulin receptor; less than 5.00 in [19]; 5.33 in data set [21]; 7.40 in data set [23]. The pIC50 was less than 5.00 in data set [25]; 5.37 in data set [4]; less than 5.00 in data set [26]; less than 5.00 in data set [27]; less than 5.00 in [29]. Also, the Vd (usually a proportionality between amount in the body and measured concentration, not a real space) in [8] was 6.42 L/kg. The clearance (commonly the rate of elimination divided by the concentration) in data set [11] was 32.1 mL/min/kg. Besides, the inhibition in vivo (usually the relative decrease from the control value, in per cent) at 10 mg/kg in the data set on Mus musculus [13] is -7%. Also, in the data set with Mus musculus [17], the inhibition in vivo at 30 mg/kg amounted to 21%. For the same molecule, the CL in the data set with Liver microsomes worked out at 161.2 µL/min. The result in the data set on Mus musculus [20] was Active. The values for the half-life (in [22]; in “in vitro”) were 342 min and 8.6 min, respectively. Also, in data set [24], the bioavailability (in general, dose-corrected exposure relative to a reference, in per cent) is 95%. Besides, the inhibition in vivo at 100 mg/kg with Mus musculus [28] came out at 57%.
Regarding `CN1CCN(c2cccc(-c3cnn4c(N)c(-c5ccc(NC(=O)c6ccc(C(F)(F)F)cc6)cc5)cnc34)c2)CC1`, the values for the pIC50 in data set [2], in data set [3] and in [4] were 6.53, less than 6.00 and 5.64, respectively.
As to `Cc1nc2c(-c3cccc(N4CCN(C)CC4)c3)cnn2c(N)c1-c1ccc(NC(=O)OCC(C)C)cc1`, the pIC50 in [1] is 6.94; in data set [2] it was less than 6.00; in [3], less than 6.00; in data set [4] it was less than 5.00.
On to `CN1CCN(c2cccc(-c3cnn4c(N)c(-c5ccc(NC(=O)N(C)C6CCCCC6)cc5)cnc34)c2)CC1`, for which the pIC50 in data set [2] was 6.96; in data set [3], 6.26; in [4] it was 5.22.
The matching figures for `CN1CCN(c2ccc(-c3cnn4c(N)c(-c5ccc(NC(=O)Oc6ccccc6)cc5)cnc34)cc2)CC1`: 7.06, 6.40 and 6.00.
As to `CN1CCN(c2ccc(-c3cnn4c(N)c(-c5cccc(O)c5)cnc34)cc2)CC1`, the pIC50 is 8.10 in data set [1], 8.10 in data set [2], 8.70 in data set [3] and 7.02 in data set [4].
For `CN1CCN(c2cccc(-c3cnn4c(N)c(-c5ccc(NC(=O)Nc6ccccc6Cl)cc5)cnc34)c2)CC1`, the pIC50 in data set [2] was 6.76; in data set [3] it was 6.00.
Consider `CN1CCN(c2cccc(-c3cnn4c(N)c(-c5ccc(NC(=O)NCC6CCCCC6)cc5)cnc34)c2)CC1`, for which the pIC50 in [2] was 7.15; in data set [3], 6.64; in [4], 6.89.
Take `CN1CCN(c2ccc(-c3cnn4c(N)c(-c5ccc(O)cc5)cnc34)cc2)CC1`: the pIC50 was 7.44 in [1], 7.07 in [2], 6.40 in data set [3] and 5.89 in data set [4].
The matching figures for `Cc1nn2c(N)c(-c3cccc(O)c3)cnc2c1-c1ccc(N2CCN(C)CC2)cc1`: less than 6.00, less than 6.00, less than 6.00 and 6.30.
With `CN1CCN(c2cccc(-c3cnn4c(N)c(-c5ccc(NC(=O)Oc6ccccc6)cc5)cnc34)c2)CC1`, the figures for the pIC50 in data set [2], in [3] and in data set [4] were 6.71, 6.16 and 5.39, respectively.
Take `CN1CCN(c2ccc(-c3cnn4c(N)c(-c5ccc(NC(=O)Nc6ccccc6Cl)cc5)cnc34)cc2)CC1`: the pIC50 in [2] is 6.67; in data set [3] it was less than 6.00.
As for `CC(C)COC(=O)Nc1ccc(-c2cnc3c(-c4cccc(N5CCN(C)CC5)c4)cnn3c2N)cc1`, the pIC50 in [2] was 6.23; in data set [3], 5.77; in data set [4], 5.27. For the same molecule, the CL in the data set on Liver microsomes stood at 612.5 µL/min. In addition, the half-life (commonly the time in which the quantity being followed falls by half) in “in vitro” is 2.3 min.
Turning to `CN1CCN(c2ccc(-c3cnn4c(N)c(-c5ccc(NC(=O)NCC6CCCCC6)cc5)cnc34)cc2)CC1`, the pIC50 is 7.68 in [2] and 6.84 in [3].
In the case of `CC(C)COC(=O)Nc1ccc(-c2cnc3c(-c4cccc(N5CCN(C(=O)CN)CC5)c4)cnn3c2N)cc1`, the pIC50 in data set [1] is 8.15; in [2], 6.57; in data set [3], 6.12; in [4] it was 5.72. Further, the CL in the data set on Liver microsomes turned out to be 11.2 µL/min. This molecule came in with a half-life in “in vitro” of 124 min.
With `CN1CCN(c2cccc(-c3cnn4c(N)c(-c5ccc(O)cc5)cnc34)c2)CC1`, the pIC50 was 7.52 in data set [1], 6.47 in data set [2], 6.35 in [3] and 6.33 in data set [4].
Take `CC(C)COC(=O)Nc1ccc(-c2cnc3c(-c4cccc(N5CCNCC5)c4)cnn3c2N)cc1`: the pIC50 in data set [1] is 8.15; in data set [2] it was 6.51; in data set [3] it was 6.19; in data set [4] it was 5.68. The CL in the data set with Liver microsomes came out at 29 µL/min. In addition, the half-life in “in vitro” is 48 min.
As to `CN1CCN(c2ccc(-c3cnn4c(N)c(-c5ccc(NC(=O)CCC6CCCC6)cc5)cnc34)cc2)CC1`, the negative-log IC50 (pIC50) is 7.85 in data set [2], 6.85 in data set [3] and 5.99 in [4].
With `CC(C)COC(=O)Nc1ccc(-c2cnc3c(-c4cccc(N5CCN(S(C)(=O)=O)CC5)c4)cnn3c2N)cc1`, the pIC50 in data set [1] was 6.68; in [2] it was 6.17; in data set [3] it was less than 6.00; in data set [4] it was less than 5.00. The molecule also registered a CL in the data set with Liver microsomes of 58.4 µL/min. The molecule further gave a half-life in the data set “in vitro” of 23.7 min.
Regarding `CN1CCN(c2ccc(-c3cnn4c(N)c(-c5ccc(NC(=O)c6ccc(C(F)(F)F)cc6)cc5)cnc34)cc2)CC1`, the pIC50 in [2] was 6.59; in data set [3] it was 6.00; in data set [4], 5.08.
